SMILES strings stand for the structures.

One assay deals with MCA205 fibrosarcoma. The experiment in a line: Subcutaneous MCA205 fibrosarcoma: tumor growth, cure and survival under chemo-immunotherapy. Type of assay: in vivo, C57B1/6 mice. The following applies: for Complete responses leading to tumor eradication: endpoint 50 days after chemotherapy; for Efficacy of MTX + ICIs (anti-PD-1 plus anti-CTLA-4) chemo-immunotherapy when the CRM is added: figure legends FIG. 2, 3, 4, 6. Here is the method:
Mouse strain and housing. Six- to 8-week-old wild-type female C57B1/6 mice were obtained from Envigo RMS SARL (Gannat, France). Animals were maintained in specific pathogen-free conditions in a temperature-controlled environment with 12 h light, 12 h dark cycles and received food and water ad libitum (unless precised otherwise). Animal experiments were in compliance with the EU Directive 63/2010 and approved by the Ethical Committee of the Cordeliers Research Center (Paris, France). All mouse experiments were randomized and blinded, and sample sizes were calculated to detect a statistically significant effect.
In vivo experimentations. Tumor engraftment was performed through subcutaneous injection of 3×10^5 MCA205 fibrosarcoma tumor cells (in 100 μl PBS) in the right flank of the mice. Tumor volume was monitored using a digital caliper and calculated according to the formula: volume=length×width×height/8×4/3 pi. When tumor reached 20 mm^3 on average, mice underwent fasting (48 hours without food but ad libitum access to water) or were given caloric restriction mimetics (CRMs) such as aspirin (Asp; 10 mg/kg i.p. in 200 μl phosphate buffered saline [PBS] five times per week), hydroxycitrate (HC; 5 mg/ml in drinking water daily) or spermidine (Spd; 50 mg/kg i.p. in 200 μl Earle's balanced salt solution three times per week), or were treated with mitoxantrone (MTX; 5.17 mg/kg i.p. in 200 μl PBS), or with the immune checkpoint inhibitors (ICIs) anti-PD-1 (10 mg/kg i.p. in 200 μl PBS) and/or anti-CTLA-4 (5 mg/kg i.p. in 200 μl PBS). Tumor size was carefully monitored up to 50 days post-MTX. Antitumor immunity induced by the treatment in cured mice was challenged by subcutaneously re-engrafting the same tumor (3×10^5 syngeneic MCA205 fibrosarcoma cells) in one flank while an antigenically unrelated cancer (3×10^5 syngeneic TC1 lung carcinoma cells) was implanted into the contralateral flank.
Statistical analyses. For tumor size comparison, Student unpaired t test or one-way ANOVA (Holm-Sidak) were performed. All statistical analyses were performed using GraphPad Prism version 6 for Windows (GraphPad Software, La Jolla, Calif., USA). Differences were considered significant when p value<0.05.

In the next assay the test system is mammary carcinomas. The experiment in a line: Hormone-induced (MPA/DMBA) orthotopic mammary tumor model. The assay is classed as in vivo, BALB/c mice. Conditions: combination of MTX-based chemotherapy and HC, versus MTX and HC alone; data not shown. An excerpt: Breast cancers were induced in young (7-weeks-old) female BALB/c mice by implantation of medroxyprogesterone acetate (MPA)-releasing pellets followed by gavage with the DNA damaging agent 7,12-Dimethylbenz[a]anthracene (DMBA) for the following 6 weeks. Note that the interval between the last DMBA injection and the manifestation of palpable breast cancer lesions is rather variable. When palpable tumors appeared, mice were randomized into the different experimental groups and treated with intraperitoneal injections of hydroxycitrate (100 mg/kg) at d-1 and d0 and/or intraperitoneal injections of 5.17 mg/kg of Mitoxantrone. Neutralizing anti-CD11b antibodies (clone M1/70, ref BE0007 from BioXCell™) or their isotype control (clone LTF-2, ref BE0090 from BioXCell™) were then injected at d-1, d0 and d7. Tumor growth was followed by calculating tumor surface (mm^2) with the formula length×width.

A further assay has as its system PD-L2. The experiment in a line: PD-L2 expression in tumor cells. The assay is classed as in vivo, C57B1/6 mice. Conditions: data not shown. Here is the method:
3 or 11 days post-chemotherapy (d3 or d11), mice were euthanized and the tumors were withdrawn and placed in gentleMACS C tubes (ref 130-096-334 from Miltenyi Biotec™) previously filled with 1 ml of DMEM or RPMI medium, and immediately put on ice. After a mechanical (with scissors) and chemical digestion (thanks to the tumor dissociation kit and the gentleMACS Octo Dissociator, ref 130-096-730 and 130-096-427, respectively, from Miltenyi Biotec™), tumors were filtered (using MACS smartstrainers […], ref 130-110-916 from Miltenyi Biotec™), washed twice with PBS and distributed in a 96-wells round bottom plate.
Then, cells were stained with a live dead dye (ref L34959 from ThermoFisher Scientific™) and an FCblock receptor targeting antibody. […] Finally, cells were resuspended in FACS buffer and analyzed on a flow cytometer BD LSR II.

For assay [1] the following is noted: background, reference (9); cited from earlier work.
Setting [2] is: HC + MTX chemotherapy + immunotherapy (anti-PD-1 plus anti-CTLA-4).

`O=C(O)CC(O)(C(=O)O)C(O)C(=O)O` (stereo not shown) [HC, hydroxycitrate]: the “Complete responses at day 30” value with MCA205 fibrosarcoma (setting [2]) was “all animals of the group”. Further, the Stable response in the assay with MCA205 fibrosarcoma (setting [2]) is recorded as 7 out of 8. In the assay on MCA205 fibrosarcoma (HC in drinking water + MTX chemotherapy + immunotherapy, versus all other groups), the “Reduction of tumor growth” value is given as “more efficient in reducing tumor growth than all other groups”. Besides, in the assay with MCA205 fibrosarcoma (HC+MTX versus MTX alone, data not shown), the “Reduction of tumor growth and prolongation of survival” value was “more successful in reducing tumor growth and in prolonging survival than MTX alone”. Further, the “Complete responses leading to tumor eradication” value with MCA205 fibrosarcoma (MTX plus HC) was “either not seen at all or rare”. For the same compound, the Tumor-free mice in the assay on MCA205 fibrosarcoma (MTX pre-treatment associated with the CRM, then CTLA-4/PD-1-blocking antibodies (FIG. 6)) is recorded as 7 out of 10. Also, the entries for the “Efficacy of MTX + ICIs (anti-PD-1 plus anti-CTLA-4) chemo-immunotherapy when the CRM is added” value with MCA205 fibrosarcoma and in the assay on MCA205 fibrosarcoma (listed as Hydroxycitrate) were “further enhanced” and “enhances tumor growth control”, respectively. For the same compound, in the assay with MCA205 fibrosarcoma (pretreated with the CRM alone (without MTX), data not shown), the “Response to CTLA-4/PD-1-blockade” value is listed as “did not respond”. In addition, the “Reduction of tumor growth and prolongation of mouse survival” value in the assay with mammary carcinomas is “highly efficient in reducing tumor growth and prolonging mouse survival”. The “Effect of co-treatment on MTX-induced PD-L2 increase in CD45- cells” value in the assay with PD-L2 is reported as “not affected”. Moreover, the “Efficacy of anticancer chemotherapy with immunogenic cell death (ICD) inducers” value in assay [1] was “able to improve the efficacy”.
For `O=C1c2c(O)ccc(O)c2C(=O)c2c(NCCNCCO)ccc(NCCNCCO)c21` [MTX, mitoxantrone], the “Complete responses leading to tumor eradication” value with MCA205 fibrosarcoma (MTX plus immunotherapy (antibodies blocking CTLA-4 or PD-1)) and with MCA205 fibrosarcoma (MTX plus isotypes) was “either not seen at all or rare” throughout. For the same compound, the Complete cure in the assay with MCA205 fibrosarcoma (MTX pretreatment, then CTLA-4/PD-1-blocking antibodies from day 8 post-chemotherapy (FIG. 6)) is on record as 3 out of 10. In addition, in the assay on PD-L2 (MTX), the “PD-L2 expression in CD45- cells” value was “increase”.
